# Measurements taken from patent publication US12662489B2 (Sitryx Therapeutics Limited, priority 2023, dated 2026).
# Assays:
# [1] = target: T1, MTHFD1 recombinant human enzyme (Homo sapiens, UniProt P11586); experiment: MTHFD1 inhibition assay (NAD(P)H-Glo luminescence); settings: MTHFD1 IC50, recombinant human enzyme 200 nM, NADP, band
# T1 sequence (P11586 2-291 limits assumed): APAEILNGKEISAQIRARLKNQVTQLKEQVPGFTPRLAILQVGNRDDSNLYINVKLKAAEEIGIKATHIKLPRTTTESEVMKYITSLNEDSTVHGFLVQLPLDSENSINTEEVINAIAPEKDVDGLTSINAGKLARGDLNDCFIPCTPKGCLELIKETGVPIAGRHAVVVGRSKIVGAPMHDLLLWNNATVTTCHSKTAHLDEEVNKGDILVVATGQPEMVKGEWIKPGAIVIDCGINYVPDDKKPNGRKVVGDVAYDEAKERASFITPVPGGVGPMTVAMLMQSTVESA
# [2] = target: T2, MTHFD2 recombinant human enzyme (Homo sapiens, UniProt P13995); experiment: MTHFD2 inhibition assay (NAD(P)H-Glo luminescence); settings: for MTHFD1/MTHFD2 IC50 ratio: selectivity of MTHFD2 inhibition over MTHFD1, band
# T2 sequence (P13995 36-350): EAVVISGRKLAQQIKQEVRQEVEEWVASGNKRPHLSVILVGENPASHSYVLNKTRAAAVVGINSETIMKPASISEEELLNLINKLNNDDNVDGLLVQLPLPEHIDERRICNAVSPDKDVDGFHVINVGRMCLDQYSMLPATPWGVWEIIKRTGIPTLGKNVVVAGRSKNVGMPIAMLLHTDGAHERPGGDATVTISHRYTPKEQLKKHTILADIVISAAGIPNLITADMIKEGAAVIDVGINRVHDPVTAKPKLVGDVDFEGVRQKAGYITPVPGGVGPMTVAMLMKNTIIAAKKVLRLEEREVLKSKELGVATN
IC50 [1],IC50 [2],MTHFD1/MTHFD2 IC50 ratio [2],Structure (SMILES)
100 to 1000 nM,100 to 1000 nM,F (<3),"COC[C@H]1CN(c2cc(C)c3c4c(c(=O)oc3c2C)CN(C(=O)c2ccc(C(=O)NS(=O)(=O)N3CCCC3)c(N3CC5CC5C3)c2F)CC4)CCN1C (stereo partly drawn) [Example 95, 2-(3-azabicyclo[3.1.0]hexan-3-yl)-3-fluoro-4-(8-((R)-3-(methoxymethyl)-4-methylpiperazin-1-yl)-7,10-dimethyl-5-oxo-1,3,4,5-tetrahydro-2H-chromeno[3,4-c]pyridine-3-carbonyl)-N-(pyrrolidin-1-ylsulfonyl)benzamide]"
10 to 100 nM,10 to 100 nM,F (<3),"COC[C@H]1CN(c2cc(C)c3c4c(c(=O)oc3c2C)CN(C(=O)c2cc(N3CCCC3)c(C(=O)NS(=O)(=O)N3CCCC3)cc2F)CC4)CCN1C [Example 141, (R)-5-fluoro-4-(8-(3-(methoxymethyl)-4-methylpiperazin-1-yl)-7,10-dimethyl-5-oxo-1,3,4,5-tetrahydro-2H-chromeno[3,4-c]pyridine-3-carbonyl)-2-(pyrrolidin-1-yl)-N-(pyrrolidin-1-ylsulfonyl)benzamide]"
1 to 10 nM,10 to 100 nM,F (<3),"COC[C@H]1CN(c2cc(C)c3c4c(c(=O)oc3c2C)CN(C(=O)c2ccc(C(=O)NS(=O)(=O)N(C)C)c(N3CC5CCC3C5)c2)CC4)CCN1C (stereo partly drawn) [Example 116, 2-(2-azabicyclo[2.2.1]heptan-2-yl)-N-(N,N-dimethylsulfamoyl)-4-(8-((R)-3-(methoxymethyl)-4-methylpiperazin-1-yl)-7,10-dimethyl-5-oxo-1,3,4,5-tetrahydro-2H-chromeno[3,4-c]pyridine-3-carbonyl)benzamide]"
10 to 100 nM,10 to 100 nM,F (<3),"COC[C@H]1CN(c2cc(C)c3c4c(c(=O)oc3c2C)CN(C(=O)c2ccc(C(=O)NS(=O)(=O)N3CCCC3)c(OC3C[C@@H]5C[C@@H]5C3)c2)CC4)CCN1C (mixture of isomers) [Example 109, 2-(bicyclo[3.1.0]hexan-3-yloxy)-4-(8-((R)-3-(methoxymethyl)-4-methylpiperazin-1-yl)-7,10-dimethyl-5-oxo-1,3,4,5-tetrahydro-2H-chromeno[3,4-c]pyridine-3-carbonyl)-N-(pyrrolidin-1-ylsulfonyl)benzamide]"
1000 to 5000 nM,100 to 1000 nM,H (>9.0 to 30),"CCOc1cc(C(=O)N2CCc3c(c(=O)oc4c(C)c(N5CCN(C)[C@@H](COC)C5)cc(C)c34)C2)cc(C(F)(F)F)c1C(=O)NS(=O)(=O)N1CCCC1 [Example 160, (R)-2-ethoxy-4-(8-(3-(methoxymethyl)-4-methylpiperazin-1-yl)-7,10-dimethyl-5-oxo-1,3,4,5-tetrahydro-2H-chromeno[3,4-c]pyridine-3-carbonyl)-N-(pyrrolidin-1-ylsulfonyl)-6-(trifluoromethyl)benzamide]"
100 to 1000 nM,100 to 1000 nM,F (<3),"COC[C@H]1CN(c2cc(C)c3c4c(c(=O)oc3c2C)CN(C(=O)c2ccc(C(=O)NS(=O)(=O)N3CCCC3)c(N3CCC[C@H]3C)c2)CC4)CCN1C [Example 124, 4-(8-((R)-3-(methoxymethyl)-4-methylpiperazin-1-yl)-7,10-dimethyl-5-oxo-1,3,4,5-tetrahydro-2H-chromeno[3,4-c]pyridine-3-carbonyl)-2-((R)-2-methylpyrrolidin-1-yl)-N-(pyrrolidin-1-ylsulfonyl)benzamide]"
1 to 10 nM,1 to 10 nM,F (<3),"COC[C@H]1CN(c2ccc3c4c(c(=O)oc3c2C)CN(C(=O)c2ccc(C(=O)NS(=O)(=O)N(C)C)c(O[C@@H]3C[C@@H]5C[C@@H]5C3)c2F)CC4)CCN1C [Example 13, 2-(((1R,3r,5S)-bicyclo[3.1.0]hexan-3-yl)oxy)-N-(N,N-dimethylsulfamoyl)-3-fluoro-4-(8-((R)-3-(methoxymethyl)-4-methylpiperazin-1-yl)-7-methyl-5-oxo-1,3,4,5-tetrahydro-2H-chromeno[3,4-c]pyridine-3-carbonyl)benzamide]"
1 to 10 nM,1 to 10 nM,F (<3),"COC[C@H]1CN(c2cc(C)c3c4c(c(=O)oc3c2C)CN(C(=O)c2ccc(C(=O)NS(=O)(=O)N(C)C)c(N3CCCC(F)(F)C3)c2)CC4)CCN1C [Example 77, (R)-2-(3,3-difluoropiperidin-1-yl)-N-(N,N-dimethylsulfamoyl)-4-(8-(3-(methoxymethyl)-4-methylpiperazin-1-yl)-7,10-dimethyl-5-oxo-1,3,4,5-tetrahydro-2H-chromeno[3,4-c]pyridine-3-carbonyl)benzamide]"
1 to 10 nM,1 to 10 nM,F (<3),"COC[C@H]1CN(c2cc(C)c3c4c(c(=O)oc3c2C)CN(C(=O)c2ccc(C(=O)NS(=O)(=O)N3CCCC3)c(O[C@H]3C[C@@H]5C[C@@H]5C3)c2F)CC4)CCN1C [Example 66, 2-(((1R,3s,5S)-bicyclo[3.1.0]hexan-3-yl)oxy)-3-fluoro-4-(8-((R)-3-(methoxymethyl)-4-methylpiperazin-1-yl)-7,10-dimethyl-5-oxo-1,3,4,5-tetrahydro-2H-chromeno[3,4-c]pyridine-3-carbonyl)-N-(pyrrolidin-1-ylsulfonyl)benzamide]"
100 to 1000 nM,10 to 100 nM,H (>9.0 to 30),COC[C@H]1CN(c2cc(C)c3c4c(c(=O)oc3c2C)CN(C(=O)c2ccc(C(=O)NS(=O)(=O)N(C)C3CCCC3)c(OC)c2F)CC4)CCN1C [Example 238]
1000 to 5000 nM,10 to 100 nM,J (>30),"COC[C@H]1CN(c2cc(Cl)c3c4c(c(=O)oc3c2C)CN(C(=O)c2cc(N(C)C)c(C(=O)NS(=O)(=O)N3CCC[C@H]3C(F)(F)F)cc2F)CC4)CCN1C [Example 295, 4-(10-chloro-8-((R)-3-(methoxymethyl)-4-methylpiperazin-1-yl)-7-methyl-5-oxo-1,3,4,5-tetrahydro-2H-chromeno[3,4-c]pyridine-3-carbonyl)-2-(dimethylamino)-5-fluoro-N-(((S)-2-(trifluoromethyl)pyrrolidin-1-yl)sulfonyl)benzamide]"
10 to 100 nM,1 to 10 nM,F (<3),"COC[C@H]1CN(c2cc(C)c3c4c(c(=O)oc3c2C)CN(C(=O)c2ccc(C(=O)NS(=O)(=O)N3CCCC3)c(OC3CC3)c2F)CC4)CCN1C [Example 212, (R)-2-cyclopropoxy-3-fluoro-4-(8-(3-(methoxymethyl)-4-methylpiperazin-1-yl)-7,10-dimethyl-5-oxo-1,3,4,5-tetrahydro-2H-chromeno[3,4-c]pyridine-3-carbonyl)-N-(pyrrolidin-1-ylsulfonyl)benzamide]"
10 to 100 nM,10 to 100 nM,G (^ 3 to 9.0),"CCCOc1c(C(=O)NS(=O)(=O)N2CCCC2)ccc(C(=O)N2CCc3c(c(=O)oc4c(C)c(N5CCN(C)[C@@H](COC)C5)cc(C)c34)C2)c1F [Example 205, (R)-3-fluoro-4-(8-(3-(methoxymethyl)-4-methylpiperazin-1-yl)-7,10-dimethyl-5-oxo-1,3,4,5-tetrahydro-2H-chromeno[3,4-c]pyridine-3-carbonyl)-2-propoxy-N-(pyrrolidin-1-ylsulfonyl)benzamide]"

Structure (SMILES),IC50 [1],IC50 [2],MTHFD1/MTHFD2 IC50 ratio [2]
"CCOC[C@H]1CN(c2ccc3c4c(c(=O)oc3c2C)CN(C(=O)c2ccc(C(=O)NS(=O)(=O)N3CCCC3)c(OC3CCC3)c2F)CC4)CCN1C [Example 143, (R)-2-cyclobutoxy-4-(8-(3-(ethoxymethyl)-4-methylpiperazin-1-yl)-7-methyl-5-oxo-1,3,4,5-tetrahydro-2H-chromeno[3,4-c]pyridine-3-carbonyl)-3-fluoro-N-(pyrrolidin-1-ylsulfonyl)benzamide]",100 to 1000 nM,10 to 100 nM,G (^ 3 to 9.0)
"COC[C@H]1CN(c2cc(C)c3c4c(c(=O)oc3c2C)CN(C(=O)c2ccc(C(=O)NS(=O)(=O)N3C5CCC3CC5)cc2Cl)CC4)CCN1C [Example 185, (R)-N-((7-azabicyclo[2.2.1]heptan-7-yl)sulfonyl)-3-chloro-4-(8-(3-(methoxymethyl)-4-methylpiperazin-1-yl)-7,10-dimethyl-5-oxo-1,3,4,5-tetrahydro-2H-chromeno[3,4-c]pyridine-3-carbonyl)benzamide]",> 5000 nM,100 to 1000 nM,H (>9.0 to 30)
"COC[C@H]1CN(c2ccc3c4c(c(=O)oc3c2Cl)CN(C(=O)c2ccc(C(=O)NS(=O)(=O)C3(C)CC3)c(OC3CCC3)c2)CC4)CCN1C [Example 10, (R)-4-(7-chloro-8-(3-(methoxymethyl)-4-methylpiperazin-1-yl)-5-oxo-1,3,4,5-tetrahydro-2H-chromeno[3,4-c]pyridine-3-carbonyl)-2-cyclobutoxy-N-((1-methylcyclopropyl)sulfonyl)benzamide]",10 to 100 nM,10 to 100 nM,F (<3)
